Structures are written as SMILES.

This assay concerns Bombyx mori. Description: Insecticidal activity against po dosed third-instar larvae of Bombyx mori assessed as gram of diet. It counts as functional.
On to `CC(=O)N1CC[C@@]23c4ccccc4N[C@@H]4N(C)c5cccc6c5[C@@]42CCN([C@@H]13)[C@@H]6[C@H]1OC1(C)C` [COMMUNESIN A], for which the LD50 stood at 150 mg/kg.

For `C/C=C/C=C/C(=O)N1CC[C@@]23c4ccccc4N[C@@H]4N(C)c5cccc6c5[C@@]42CCN([C@@H]13)[C@@H]6[C@H]1OC1(C)C` [COMMUNESIN B], the LD50 came to 5 mg/kg. In the case of `C/C=C/C=C/C(=O)N1CC[C@@]23c4ccccc4N[C@@H]4Nc5cccc6c5[C@@]42CCN([C@@H]13)[C@@H]6[C@H]1OC1(C)C` [COMMUNESIN C] it was 300 mg/kg; in that of `C/C=C/C=C/C(=O)N1CC[C@@]23c4ccccc4N[C@@H]4N(C=O)c5cccc6c5[C@@]42CCN([C@@H]13)[C@@H]6[C@H]1OC1(C)C` [COMMUNESIN D], 80 mg/kg. The value for `CC(=O)N1CC[C@@]23c4ccccc4N[C@@H]4N(C)c5cccc6c5[C@@]42CCN([C@@H]6C=C(C)C)[C@@H]13` [COMMUNESIN E] was 80 mg/kg.
